Data reported in ChEMBL document CHEMBL1149379, “Pyrrolo(iso)quinoline derivatives as 5-HT(2C) receptor agonists” (Bioorg Med Chem Lett, 2006).
Activity calls are given as the source filed them. No cut-off for these calls is given here.

Legend:
[1] = target: T1, 5-hydroxytryptamine receptor 2A (Homo sapiens, UniProt P28223); assay: Binding to human 5HT2A receptor expressed in CHO cells relative to 5HT; format: cell-based
[2] = target: T2, 5-hydroxytryptamine receptor 2B (Homo sapiens, UniProt P41595); assay: Binding to human 5HT2B receptor expressed in CHO cells relative to 5HT; format: cell-based
[3] = target: T3, 5-hydroxytryptamine receptor 2C (Homo sapiens) (UniProt P28335); assay: Binding to human 5HT2C receptor expressed in CHO cells relative to 5HT; format: cell-based
T3 sequence (whole entry): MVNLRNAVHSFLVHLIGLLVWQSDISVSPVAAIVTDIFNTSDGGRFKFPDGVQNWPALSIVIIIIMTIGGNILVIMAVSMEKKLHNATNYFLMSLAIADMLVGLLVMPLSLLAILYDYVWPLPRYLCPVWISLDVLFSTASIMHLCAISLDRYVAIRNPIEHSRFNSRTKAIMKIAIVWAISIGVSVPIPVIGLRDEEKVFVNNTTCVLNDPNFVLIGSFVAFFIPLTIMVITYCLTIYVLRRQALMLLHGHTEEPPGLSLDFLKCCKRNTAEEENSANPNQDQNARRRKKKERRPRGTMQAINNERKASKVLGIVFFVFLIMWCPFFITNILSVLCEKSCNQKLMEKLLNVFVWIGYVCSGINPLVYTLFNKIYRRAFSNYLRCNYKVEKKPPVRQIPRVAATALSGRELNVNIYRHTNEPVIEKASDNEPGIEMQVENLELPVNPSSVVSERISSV

[4] = target: T1, 5-hydroxytryptamine receptor 2A; assay: Binding to human 5HT2A receptor expressed in CHO cells; format: cell-based
[5] = target: T2, 5-hydroxytryptamine receptor 2B; assay: Binding to human 5HT2B receptor expressed in CHO cells; format: cell-based
[6] = target: T4, 5-hydroxytryptamine receptor 2C (Homo sapiens, UniProt P28335); assay: Binding to human 5HT2C receptor expressed in CHO cells; format: cell-based
T4 sequence (P28335 whole entry): T3 sequence (whole entry)

[7] = target: T1, 5-hydroxytryptamine receptor 2A; assay: Displacement of [125I]DOI from human 5HT2A
[8] = target: T2, 5-hydroxytryptamine receptor 2B; assay: Displacement of [3H]5-HT from human 5HT2B
[9] = target: T4, 5-hydroxytryptamine receptor 2C; assay: Displacement of [3H]5-HT from human 5HT2C
[10] = test system: Rattus norvegicus; assay: Reduction in food intake in food-deprived rats after 4 hrs of administration of 3 mg/kg; format: functional, organism-based; set-up: dose 3 mg/kg
[11] = organism: Rattus norvegicus; assay: Blocking of anorectic effect in rats pre-treated with SB-242084; format: functional, organism-based

T1 sequence (P28223 whole entry): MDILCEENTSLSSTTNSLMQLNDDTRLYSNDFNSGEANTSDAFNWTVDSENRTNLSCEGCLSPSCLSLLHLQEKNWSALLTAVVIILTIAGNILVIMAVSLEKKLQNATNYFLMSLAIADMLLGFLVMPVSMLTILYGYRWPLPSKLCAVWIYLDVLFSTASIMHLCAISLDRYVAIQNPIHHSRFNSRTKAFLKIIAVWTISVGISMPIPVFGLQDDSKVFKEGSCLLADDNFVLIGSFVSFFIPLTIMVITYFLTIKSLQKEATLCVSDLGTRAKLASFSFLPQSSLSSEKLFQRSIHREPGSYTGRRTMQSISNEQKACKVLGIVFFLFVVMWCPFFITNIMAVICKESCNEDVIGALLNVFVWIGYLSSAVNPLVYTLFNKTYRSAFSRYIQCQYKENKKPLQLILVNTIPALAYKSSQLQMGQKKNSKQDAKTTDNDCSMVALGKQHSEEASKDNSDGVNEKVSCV
T2 sequence (P41595 whole entry): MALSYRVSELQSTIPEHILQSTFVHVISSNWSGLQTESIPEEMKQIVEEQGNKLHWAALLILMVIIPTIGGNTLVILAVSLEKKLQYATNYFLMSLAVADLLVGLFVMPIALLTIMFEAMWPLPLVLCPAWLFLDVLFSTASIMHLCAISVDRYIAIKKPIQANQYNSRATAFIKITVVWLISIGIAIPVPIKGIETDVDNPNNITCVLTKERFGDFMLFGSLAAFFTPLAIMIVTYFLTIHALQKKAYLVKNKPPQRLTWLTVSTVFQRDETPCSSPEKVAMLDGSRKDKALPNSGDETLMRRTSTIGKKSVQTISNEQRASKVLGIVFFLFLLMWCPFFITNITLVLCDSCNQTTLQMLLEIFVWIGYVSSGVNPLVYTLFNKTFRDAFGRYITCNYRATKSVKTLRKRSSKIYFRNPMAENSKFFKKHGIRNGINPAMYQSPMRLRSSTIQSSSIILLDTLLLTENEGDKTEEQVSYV

| SMILES | Efficacy [1] [%] | Efficacy [2] [%] | Efficacy [3] [%] | EC50 [4] [nM] | EC50 [5] [nM] | EC50 [6] [nM] | Ki [7] [nM] | Ki [8] [nM] | Ki [9] [nM] | Activity [10] | Activity [11] |
| --- | --- | --- | --- | --- | --- | --- | --- | --- | --- | --- | --- |
| C[C@H](N)Cn1ccc2ccc3cccnc3c21 | 41 | 60 | 39 | 446 | 45 | 97 | 229 | 115 | 27 | – | – |
| NCCc1c[nH]c2ccc(O)cc12 | 98 | – | – | – | – | – | – | – | – | – | – |
| C[C@@H](Cn1ccc2ccc3ncccc3c21)NCc1ccccc1 | 39 | 70 | 86 | > 1000 | 97 | 200 | 842 | 515 | 77 | – | – |
| Cc1ccccc1CN[C@@H](C)Cn1ccc2ccc3ncccc3c21 | 49 | 64 | 87 | > 1000 | 128 | 219 | 1680 | 739 | 171 | – | – |
| CCN[C@@H](C)Cc1cccc(C(F)(F)F)c1 | – | – | – | – | – | – | – | – | – | Active | – |
| C[C@H](N)Cn1ccc2ccc3ncccc3c21 | 88 | 65 | 99 | 32 | 1.1 | 2.9 | 31 | – | 1.6 | Active | Dose-dependent effect |
| C[C@@H](Cn1ccc2ccc3ncccc3c21)NCc1ccc2c(c1)OCO2 | 69 | 71 | 98 | 359 | 20 | 42 | 398 | 138 | 16 | – | – |
| C[C@H](N)Cn1ccc2ccc3ccncc3c21 | 67 | 67 | 98 | 473 | 62 | 73 | 230 | 210 | 37 | – | – |
| C=CCN[C@@H](C)Cn1ccc2ccc3ncccc3c21 | 54 | 70 | 92 | 777 | 91 | 257 | 1160 | 455 | 86 | – | – |
| COc1ccccc1CN[C@@H](C)Cn1ccc2ccc3ncccc3c21 | 24 | 41 | 77 | > 1000 | 462 | 551 | 1570 | 883 | 168 | – | – |
| Clc1cccc(N2CCNCC2)c1 | 41 | 33 | 83 | – | – | – | – | – | – | – | – |
| C[C@H](N)Cn1ccc2cc(Cl)c3ncccc3c21 | 85 | 61 | 101 | 36 | 2.1 | 6.9 | 29 | 18 | 2.4 | – | – |
| C[C@H](N)Cn1ccc2cc(F)c(Cl)cc21 | 72 | 71 | 93 | – | – | – | – | – | – | – | – |
| C[C@@H](Cn1ccc2ccc3ncccc3c21)NCc1ccccc1Cl | 58 | 72 | 95 | 638 | 44 | 74 | 674 | 380 | 39 | – | – |
| C[C@H](N)Cn1ccc2ccc3cnccc3c21 | 63 | 70 | 93 | > 1000 | 152 | 297 | 1040 | 778 | 72 | – | – |
| C[C@@H](Cn1ccc2ccc3ncccc3c21)NCC1CCCCC1 | 32 | 67 | 88 | > 1000 | 128 | 348 | 927 | 624 | 78 | – | – |
| C[C@@H](Cn1ccc2ccc3ncccc3c21)NCc1ccc2ccccc2c1 | 56 | 76 | 99 | 222 | 27 | 52 | 181 | 136 | 16 | – | – |
